Values of other authors, collected in article PMC8513935.
Each block holds one molecule with its values, some of them ahead of it.

Experiments:
[1] = derived by the authors as gas->solvent minus gas->water (a hypothetical dry solvent; the ESI), not a two-phase measurement
[2] = experimental, compiled by the authors from the literature (the ESI cites the sources)
[3] = log P octanol/water from commercial databases, averaged (the ESI); conditions: Octanol (wet), 25 C

SMILES: CCCCC(C)=O
log K of transfer, water to solvent ([1]; Benzene, 25 C): 1.81 log10 K
log K of transfer, water to solvent ([1]; CCl4, 25 C): 1.52 log10 K
log K of transfer, water to solvent ([1]; Chlorobenzene, 25 C): 1.87 log10 K
log K of transfer, water to solvent ([1]; Cyclohexane, 25 C): 1.02 log10 K
log K of transfer, water to solvent ([1]; Hexadecane, 25 C): 0.876 log10 K
log K of transfer, water to solvent ([1]; Hexane, 25 C): 1.02 log10 K
log K of transfer, water to solvent ([1]; Methanol, 25 C): 1.41 log10 K
log K of transfer, water to solvent ([1]; Octan-1-ol(dry), 25 C): 1.27 log10 K
log K of transfer, water to solvent ([1]; Toluene, 25 C): 1.7 log10 K
log K of transfer, gas to solvent ([2]; Benzene, 25 C): 4.22 log10 K
log K of transfer, gas to solvent ([2]; CCl4, 25 C): 3.93 log10 K
log K of transfer, gas to solvent ([2]; Chlorobenzene, 25 C): 4.28 log10 K
log K of transfer, gas to solvent ([2]; Cyclohexane, 25 C): 3.42 log10 K
log K of transfer, gas to solvent ([2]; Hexadecane, 25 C): 3.28 log10 K
log K of transfer, gas to solvent ([2]; Hexane, 25 C): 3.43 log10 K
log K of transfer, gas to solvent ([2]; Methanol, 25 C): 3.82 log10 K
log K of transfer, gas to solvent ([2]; Octan-1-ol, 25 C): 3.68 log10 K
log K of transfer, gas to solvent ([2]; Toluene, 25 C): 4.11 log10 K
log K of transfer, gas to solvent ([2]; Water, 25 C): 2.41 log10 K
log K of transfer, water to solvent [3]: 1.38 log10 K

SMILES: CN1CCCCC1
log K of transfer, water to solvent ([1]; Chloroform, 25 C): 1.36 log10 K
log K of transfer, water to solvent ([1]; Hexadecane, 25 C): 0.48 log10 K
log K of transfer, gas to solvent ([2]; Chloroform, 25 C): 4.21 log10 K
log K of transfer, gas to solvent ([2]; Hexadecane, 25 C): 3.33 log10 K
log K of transfer, gas to solvent ([2]; Water, 25 C): 2.85 log10 K
log K of transfer, water to solvent [3]: 1.29 log10 K

SMILES: CCCCF
log K of transfer, water to solvent ([1]; Hexadecane, 25 C): 2.06 log10 K
log K of transfer, gas to solvent ([2]; Hexadecane, 25 C): 1.77 log10 K
log K of transfer, gas to solvent ([2]; Water, 25 C): -0.29 log10 K
log K of transfer, water to solvent [3]: 2.29 log10 K

More lines, now with the values ahead:

log K of transfer, water to solvent ([1]; 1,2-Dichloroethane, 25 C): 1.3 log10 K
log K of transfer, water to solvent ([1]; 2-Methylpropan-1-ol, 25 C): 1.28 log10 K
log K of transfer, water to solvent ([1]; 2-Methylpropan-2-ol, 25 C): 1.3 log10 K
log K of transfer, water to solvent ([1]; Acetone, 25 C): 1.5 log10 K
log K of transfer, water to solvent ([1]; Butan-1-ol, 25 C): 1.28 log10 K
log K of transfer, water to solvent ([1]; Butan-2-ol, 25 C): 1.26 log10 K
log K of transfer, water to solvent ([1]; CCl4, 25 C): 1.51 log10 K
log K of transfer, water to solvent ([1]; Chlorobenzene, 25 C): 1.39 log10 K
log K of transfer, water to solvent ([1]; Cyclohexanone, 25 C): 1.34 log10 K
log K of transfer, water to solvent ([1]; Ethanol, 25 C): 1.35 log10 K
log K of transfer, water to solvent ([1]; Heptan-1-ol, 25 C): 1.25 log10 K
log K of transfer, water to solvent ([1]; Hexadecane, 25 C): 1.23 log10 K
log K of transfer, water to solvent ([1]; Hexan-1-ol, 25 C): 1.26 log10 K
log K of transfer, water to solvent ([1]; Hexane, 25 C): 1.41 log10 K
log K of transfer, water to solvent ([1]; Methanol, 25 C): 1.35 log10 K
log K of transfer, water to solvent ([1]; Octan-1-ol(dry), 25 C): 1.22 log10 K
log K of transfer, water to solvent ([1]; Pentan-1-ol, 25 C): 1.29 log10 K
log K of transfer, water to solvent ([1]; Propan-1-ol, 25 C): 1.32 log10 K
log K of transfer, water to solvent ([1]; Propan-2-ol, 25 C): 1.27 log10 K
log K of transfer, water to solvent ([1]; Tetrahydrofuran, 25 C): 1.54 log10 K
log K of transfer, gas to solvent ([2]; 1,2-Dichloroethane, 25 C): 0.36 log10 K
log K of transfer, gas to solvent ([2]; 2-Methylpropan-1-ol, 25 C): 0.34 log10 K
log K of transfer, gas to solvent ([2]; 2-Methylpropan-2-ol, 25 C): 0.36 log10 K
log K of transfer, gas to solvent ([2]; Butan-1-ol, 25 C): 0.34 log10 K
log K of transfer, gas to solvent ([2]; Butan-2-ol, 25 C): 0.32 log10 K
log K of transfer, gas to solvent ([2]; CCl4, 25 C): 0.57 log10 K
log K of transfer, gas to solvent ([2]; Chlorobenzene, 25 C): 0.45 log10 K
log K of transfer, gas to solvent ([2]; Cyclohexanone, 25 C): 0.401 log10 K
log K of transfer, gas to solvent ([2]; Ethanol, 25 C): 0.41 log10 K
log K of transfer, gas to solvent ([2]; Heptan-1-ol, 25 C): 0.312 log10 K
log K of transfer, gas to solvent ([2]; Hexadecane, 25 C): 0.289 log10 K
log K of transfer, gas to solvent ([2]; Hexan-1-ol, 25 C): 0.318 log10 K
log K of transfer, gas to solvent ([2]; Hexane, 25 C): 0.471 log10 K
log K of transfer, gas to solvent ([2]; Methanol, 25 C): 0.41 log10 K
log K of transfer, gas to solvent ([2]; Octan-1-ol, 25 C): 0.28 log10 K
log K of transfer, gas to solvent ([2]; Pentan-1-ol, 25 C): 0.35 log10 K
log K of transfer, gas to solvent ([2]; Propan-1-ol, 25 C): 0.38 log10 K
log K of transfer, gas to solvent ([2]; Propan-2-ol, 25 C): 0.33 log10 K
log K of transfer, gas to solvent ([2]; Propanone, 25 C): 0.56 log10 K
log K of transfer, gas to solvent ([2]; Tetrahydrofuran, 25 C): 0.6 log10 K
log K of transfer, gas to solvent ([2]; Water, 25 C): -0.94 log10 K
log K of transfer, water to solvent [3]: 1.13 log10 K
SMILES: C=C

log K of transfer, water to solvent ([1]; 1,2-Dichloroethane, 25 C): 1.18 log10 K
log K of transfer, water to solvent ([1]; Benzene, 25 C): 0.89 log10 K
log K of transfer, water to solvent ([1]; CCl4, 25 C): 0.22 log10 K
log K of transfer, water to solvent ([1]; Chlorobenzene, 25 C): 0.8 log10 K
log K of transfer, water to solvent ([1]; Chloroform, 25 C): 1.06 log10 K
log K of transfer, water to solvent ([1]; Cyclohexane, 25 C): -0.14 log10 K
log K of transfer, water to solvent ([1]; Dichloromethane, 25 C): 1.15 log10 K
log K of transfer, water to solvent ([1]; Hexadecane, 25 C): -0.188 log10 K
log K of transfer, water to solvent ([1]; Hexane, 25 C): -0.34 log10 K
log K of transfer, water to solvent ([1]; Perfluoroalkane, 25 C): -1.83 log10 K
log K of transfer, gas to solvent ([2]; 1,2-Dichloroethane, 25 C): 5.68 log10 K
log K of transfer, gas to solvent ([2]; Benzene, 25 C): 5.39 log10 K
log K of transfer, gas to solvent ([2]; CCl4, 25 C): 4.72 log10 K
log K of transfer, gas to solvent ([2]; Chlorobenzene, 25 C): 5.3 log10 K
log K of transfer, gas to solvent ([2]; Chloroform, 25 C): 5.56 log10 K
log K of transfer, gas to solvent ([2]; Cyclohexane, 25 C): 4.36 log10 K
log K of transfer, gas to solvent ([2]; Dichloromethane, 25 C): 5.65 log10 K
log K of transfer, gas to solvent ([2]; Hexadecane, 25 C): 4.31 log10 K
log K of transfer, gas to solvent ([2]; Hexane, 25 C): 4.16 log10 K
log K of transfer, gas to solvent ([2]; Perfluoroalkane, 25 C): 2.67 log10 K
log K of transfer, gas to solvent ([2]; Water, 25 C): 4.5 log10 K
log K of transfer, water to solvent [3]: 1.97 log10 K
SMILES: Cc1ccc(O)cc1
